# Assay results: patent US20230219886A1, “NOVEL SELENO-NSAID ANALOGS AND USES THEREOF” (THE PENN STATE RESEARCH FOUNDATION, priority 2020, published 2023)
# Like-named read-outs stand apart in the source and are kept apart here.
# Experiments:
# [1] = system: PANC-1 (pancreatic carcinoma); test: MTT cell viability assay, Panc-1; settings: Homo sapiens, PANC-1, 48 h, read-out: cell viability
# Method: (§1) Cell Culture Conditions. The cell lines were obtained from the American Type Culture Collection (ATCC). PANC-1 and Caco-2 cell lines were maintained in DMEM medium (Gibco); HT-29, HCT-116 and RKO cells were maintained in McCoy's 5A medium (Gibco); and DU-145 and H1299 cells were maintained in RPMI 1640 medium (Gibco), supplemented with 10% fetal bovine serum (FBS; Gibco) and 1% antibiotics (10.00 units/mL penicillin and 10.00 mg/mL streptomycin; Gibco). Cells were preserved in tissue culture flasks at 37° C. and 5% CO2. Culture medium was replaced every three days.
# (§2) Cell Viability Assay. The effect of each compound on cell viability was tested using the MTT assay (81). Briefly, 9000 cells/well were grown in 96-well plates for 12 h. Then these cells were incubated with either DMSO (control) or nine different concentration between 0.01-50 μM of the test compounds for 24, 48, and 72 h. Three hours before the termination point, 20 μL of MTT were added to measure cellular viability. The resultant formazan crystals were dissolved in 50 μL of DMSO, and absorbance was measured at 570 nm and 630 nm wavelengths. IC50, GI50, TGI and LC50 values were calculated using OriginPro 8.5.1.
# (§3) Evaluation of the antiproliferative activities of the novel molecules. […] These four cell lines were treated with each compound at three concentrations (5, 25 and 50 μM) for 48 h.
# HT-29 (CRC) = test: MTT cell viability assay, HT-29; settings: for viability at 5 µM / viability at 25 µM / viability at 50 µM: read-out: cell viability; for CC50: read-out: LC50
# Method: as §1, §2, §3
# HCT-116 CRC cells = test: MTT cell viability assay, HCT-116; type: cell-based, human; settings: Homo sapiens, read-out: IC50
# Method: as §1, §2
# H1299 (lung carcinoma) = test: MTT cell viability assay, H1299; settings: Homo sapiens, NCI-H1299, 48 h, read-out: cell viability
# Method: as §1, §2, §3
# [2] = system: DU-145 (prostate carcinoma); test: MTT cell viability assay, DU-145; settings: Homo sapiens, DU-145, 48 h, read-out: cell viability
# Method: as §1, §2, §3
# RKO CRC cells = test: cells; settings: Homo sapiens
# Method: as §1, §2
# CACO-2 CRC cells = test: cells; settings: Homo sapiens
# Method: as §1, §2
# TK-10 (renal) = test: NCI-60 one-dose screen, TK-10; type: cell-based, human; settings: TK-10, 10 μM, 48 h
# Excerpt: (§4) NCI-60 Analysis. 1a and 6a were submitted to National Cancer Institute's (NCI) Developmental Therapeutics Program (DTP) where the cytotoxicity profile was investigated across their 60 human cancer cell line panel according to the protocol available on multiple sources (71-73, 83). The COMPARE algorithm (73), was utilized to evaluate the activity profile of 6a in comparison to those of known cytotoxins established in marketed drugs and standard agent data sets in order to correlate plausible modes of action.
# (§5) NCI-60 analysis. Compounds 1a, 5a and 6a were submitted to the National Cancer Institute's (NCI) Developmental Therapeutics Program (DTP). NCI-60 program consists in a panel of 60 human cancer cell lines from a variety of cancers, including refractory tumors such as lung, ovarian, CRC, breast, brain and renal cancers, and melanomas together with more treatable cancers such as leukemias (71). 1a [NSC: 803071], 5a [NSC: 820332] and 6a [NSC: 811013] were initially screened at one dose (10 μM) at 48 h. Then, NCI selected only compound 6a to perform dose-response characterization (72).
# NCI-60 cell lines = test: NCI-60 one-dose screen, mean of all cell lines; type: cell-based, human; settings: 10 μM, 48 h
# Excerpt: as §4, §5
# DU-145 (prostate) = test: NCI-60 one-dose screen, DU-145; type: cell-based, human; settings: DU-145, 10 μM, 48 h
# Excerpt: as §4, §5
# BT-549 (breast) = test: NCI-60 one-dose screen, BT-549; type: cell-based, human; settings: BT-549, 10 μM, 48 h
# Excerpt: as §4, §5
# [3] = system: human CRC cells (HT-29, HCT-116, RKO and CACO-2); test: MTT assay, panel of four CRC cells; type: cell-based; settings: 4 CRC cells
# Method: Cell Culture Conditions. […] Culture medium was replaced every three days.
# Evaluation of the antiproliferative activity of methylseleno-NSAIDs, MSA and NSAIDs alone or in combination. […] CRC cells were treated for 24, 48 and 72 h at different concentrations to stablish the dose-response curves.
# SK-MEL-28 (melanoma) = test: NCI-60 one-dose screen, SK-MEL-28; type: cell-based, human; settings: SK-MEL-28, 10 μM, 48 h
# Excerpt: as §4, §5
compound,measurement,setting,value
"CC(=O)Oc1ccccc1C(=O)O [ASA, aspirin, reference compound]",viability at 5 µM,[1],86.7 ± 5.4%
same,viability at 25 µM,[1],63.8 ± 3.1%
same,viability at 50 µM,[1],68.6 ± 5.1%
same,TGI,"HT-29 (CRC); HT-29, 24 h",>50 µM
same,TGI,"HT-29 (CRC); HT-29, 48 h",>50 µM
same,TGI,"HT-29 (CRC); HT-29, 72 h",>50 µM
same,GI50,"HT-29 (CRC); Homo sapiens, HT-29, 24 h",> 50 µM
same,IC50,"HT-29 (CRC); Homo sapiens, HT-29, 24 h",> 50 µM
same,GI50,"HT-29 (CRC); Homo sapiens, HT-29, 48 h",> 50 µM
same,IC50,"HT-29 (CRC); Homo sapiens, HT-29, 48 h",> 50 µM
same,viability at 5 µM,"HT-29 (CRC); Homo sapiens, HT-29, 48 h",73.1 ± 13%
same,viability at 25 µM,"HT-29 (CRC); Homo sapiens, HT-29, 48 h",57.2 ± 11.3%
same,viability at 50 µM,"HT-29 (CRC); Homo sapiens, HT-29, 48 h",35.5 ± 7.7%
same,GI50,"HT-29 (CRC); Homo sapiens, HT-29, 72 h",> 50 µM
same,IC50,"HT-29 (CRC); Homo sapiens, HT-29, 72 h",> 50 µM
same,IC50,"HCT-116 CRC cells; HCT-116, 24 h",> 50 µM
same,IC50,"HCT-116 CRC cells; HCT-116, 48 h",> 50 µM
same,IC50,"HCT-116 CRC cells; HCT-116, 72 h",> 50 µM
same,viability at 5 µM,H1299 (lung carcinoma),44.1 ± 4.4%
same,viability at 25 µM,H1299 (lung carcinoma),51.1 ± 1.6%
same,viability at 50 µM,H1299 (lung carcinoma),58.3 ± 3.6%
same,viability at 5 µM,[2],89.8 ± 11%
same,viability at 25 µM,[2],85.3 ± 25.1%
same,viability at 50 µM,[2],90.9 ± 24.6%
same,IC50,RKO CRC cells; 24 h,> 50 µM
same,IC50,RKO CRC cells; 48 h,> 50 µM
same,IC50,RKO CRC cells; 72 h,> 50 µM
same,IC50,"CACO-2 CRC cells; Caco-2, 24 h",> 50 µM
same,IC50,"CACO-2 CRC cells; Caco-2, 48 h",> 50 µM
same,IC50,"CACO-2 CRC cells; Caco-2, 72 h",> 50 µM
"COc1ccc2c(c1)c(CC(=O)[Se]C)c(C)n2C(=O)c1ccc(Cl)cc1 [Compound 5a, Se-methyl 2-(1-(4-chlorobenzoyl)-5-methoxy-2-methyl-1H-indol-3-yl)ethane-selenoate]",viability at 5 µM,[1],61.9 ± 4.4%
same,viability at 25 µM,[1],66.6 ± 1.9%
same,viability at 50 µM,[1],60.2 ± 5.5%
same,increase on cytotoxic potency compared with parent NSAID scaffolds,HT-29 (CRC),three-fold
same,TGI,"HT-29 (CRC); HT-29, 24 h",>50 µM
same,TGI,"HT-29 (CRC); HT-29, 48 h",0.6 ± 0.5 µM
same,TGI,"HT-29 (CRC); HT-29, 72 h",5.1 ± 2.2 µM
same,GI50,"HT-29 (CRC); Homo sapiens, HT-29, 24 h",4.9 ± 2.2 µM
same,IC50,"HT-29 (CRC); Homo sapiens, HT-29, 24 h",> 50 µM
same,CC50,"HT-29 (CRC); Homo sapiens, HT-29, 24 h",> 50 µM
same,GI50,"HT-29 (CRC); Homo sapiens, HT-29, 48 h",3.2 ± 1.9 µM
same,IC50,"HT-29 (CRC); Homo sapiens, HT-29, 48 h",3.3 ± 0.9 µM
same,CC50,"HT-29 (CRC); Homo sapiens, HT-29, 48 h",> 50 µM
same,viability at 5 µM,"HT-29 (CRC); Homo sapiens, HT-29, 48 h",26.3 ± 2.9%
same,viability at 25 µM,"HT-29 (CRC); Homo sapiens, HT-29, 48 h",17.9 ± 3.7%
same,viability at 50 µM,"HT-29 (CRC); Homo sapiens, HT-29, 48 h",18 ± 3.5%
same,GI50,"HT-29 (CRC); Homo sapiens, HT-29, 72 h",2.9 ± 0.8 µM
same,IC50,"HT-29 (CRC); Homo sapiens, HT-29, 72 h",3.3 ± 0.3 µM
same,CC50,"HT-29 (CRC); Homo sapiens, HT-29, 72 h",> 50 µM
same,cytotoxicity at 5 µM,"HT-29 (CRC); Homo sapiens, HT-29, read-out: inhibition in cell viability",75 to 80%
same,IC50,"HCT-116 CRC cells; HCT-116, 24 h",> 50 µM
same,IC50,"HCT-116 CRC cells; HCT-116, 48 h",5.6 ± 2.6 µM
same,IC50,"HCT-116 CRC cells; HCT-116, 72 h",18.7 ± 4.9 µM
same,viability at 5 µM,H1299 (lung carcinoma),49.5 ± 9.4%
same,viability at 25 µM,H1299 (lung carcinoma),37 ± 5.6%
same,viability at 50 µM,H1299 (lung carcinoma),32.4 ± 5.8%
same,GP,TK-10 (renal),−58.40%
same,GP mean value towards all cell lines,NCI-60 cell lines,4.01%
same,viability at 5 µM,[2],52.1 ± 1.5%
same,viability at 25 µM,[2],34.5 ± 3%
same,viability at 50 µM,[2],27.4 ± 1.7%
same,GP,DU-145 (prostate),−7.90%
same,IC50,RKO CRC cells; 24 h,> 50 µM
same,IC50,RKO CRC cells; 48 h,10.1 ± 6.9 µM
same,IC50,RKO CRC cells; 72 h,11.6 ± 5.9 µM
same,IC50,"CACO-2 CRC cells; Caco-2, 24 h",> 50 µM
same,IC50,"CACO-2 CRC cells; Caco-2, 48 h",4.2 ± 1.7 µM
same,IC50,"CACO-2 CRC cells; Caco-2, 72 h",5.5 ± 1.1 µM
same,GP,BT-549 (breast),−80.79%
same,anti-tumoral activity versus MSA and NSAIDs as single agents or combined,[3],higher anti-tumoral activity
same,GP,SK-MEL-28 (melanoma),−7.85%
